Each molecule was assayed against T1, Renin (Homo sapiens, UniProt P00797) (assay: Concentration required to inhibit renin activity by 50%).
T1 sequence (P00797 whole entry): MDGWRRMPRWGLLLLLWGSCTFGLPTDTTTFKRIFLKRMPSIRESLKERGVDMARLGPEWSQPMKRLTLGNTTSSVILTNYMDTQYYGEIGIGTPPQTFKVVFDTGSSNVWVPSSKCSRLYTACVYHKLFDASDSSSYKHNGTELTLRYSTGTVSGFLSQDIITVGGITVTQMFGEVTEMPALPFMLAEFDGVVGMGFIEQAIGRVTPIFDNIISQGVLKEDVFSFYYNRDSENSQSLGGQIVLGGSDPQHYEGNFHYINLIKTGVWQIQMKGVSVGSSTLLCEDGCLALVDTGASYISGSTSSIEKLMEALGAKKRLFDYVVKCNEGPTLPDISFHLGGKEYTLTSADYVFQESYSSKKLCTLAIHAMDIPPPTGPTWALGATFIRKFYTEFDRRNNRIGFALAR

Row | IC50 | Compound
1 | 17 nM | COCCCN1C(=O)CCc2ccc(OC[C@@H]3CNCC(=O)N3c3ccc(OCCCOCc4ccccc4OC)cc3)cc21
2 | 7 nM | COCCCN1C(=O)CCc2ccc(OC[C@H]3CNCC(=O)N3c3ccc(OCCCOCc4ccccc4OC)cc3)cc21
3 | 120 nM | COc1ccccc1COCCCOc1ccc(N2C(=O)CNC[C@@H]2COc2ccc3c(c2)NCCC3)cc1
4 | 860 nM | COc1ccccc1COCCCOc1ccc(N2C(=O)CNC[C@H]2COc2ccc3cccnc3c2)cc1
5 | 33 nM | COc1ccccc1COCCCOc1ccc(N2C(=O)CNC[C@H]2COc2ccc3c(c2)N(CCO)CCC3)cc1
6 | 23 nM | COc1ccccc1COCCCOc1ccc(N2C(=O)CNC[C@H]2COc2ccc3c(c2)NCCC3)cc1
7 | 35 nM | COc1ccccc1COCCCOc1ccc(N2C(=O)CNC[C@H]2COc2ccc3c(c2)N(CCCO)CCC3)cc1

Reference: ChEMBL document CHEMBL1144390, “Equipotent activity in both enantiomers of a series of ketopiperazine-based renin inhibitors” (Bioorg Med Chem Lett, 2005)
